How the values were obtained:
rMIC1 = target: T1, rMIC1 (Toxoplasma gondii, UniProt A0A125YMF8); assay: microplate sugar-inhibition of binding to coated fetuin, antibody detection; details: 25 °C, 2 h; competes with fetuin glycans at the carbohydrate-recognition domain
T1 construct: gene MIC1

rMIC4 = target: T2, rMIC4 (Toxoplasma gondii, UniProt Q9XZH7); assay: microplate sugar-inhibition of binding to coated asialofetuin, antibody detection; details: 25 °C, 2 h; competes with asialofetuin glycans at the carbohydrate-recognition domain
T2 construct: gene MIC4
T2 sequence (Q9XZH7 26-580): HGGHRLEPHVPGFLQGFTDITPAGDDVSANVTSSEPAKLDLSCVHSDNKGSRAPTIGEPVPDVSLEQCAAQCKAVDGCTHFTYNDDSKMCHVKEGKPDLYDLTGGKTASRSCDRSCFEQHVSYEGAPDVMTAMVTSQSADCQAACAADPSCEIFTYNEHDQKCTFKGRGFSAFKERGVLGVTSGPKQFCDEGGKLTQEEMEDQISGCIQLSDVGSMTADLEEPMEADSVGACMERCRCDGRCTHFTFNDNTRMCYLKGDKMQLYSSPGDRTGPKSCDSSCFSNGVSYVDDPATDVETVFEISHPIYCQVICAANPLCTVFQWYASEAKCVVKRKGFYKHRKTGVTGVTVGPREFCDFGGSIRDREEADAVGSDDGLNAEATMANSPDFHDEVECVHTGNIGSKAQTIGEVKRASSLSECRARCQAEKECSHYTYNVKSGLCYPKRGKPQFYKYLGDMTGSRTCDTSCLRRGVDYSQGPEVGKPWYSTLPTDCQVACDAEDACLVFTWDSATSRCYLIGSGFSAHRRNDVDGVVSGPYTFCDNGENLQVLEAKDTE

T1 sequence (A0A125YMF8 entry or part of it): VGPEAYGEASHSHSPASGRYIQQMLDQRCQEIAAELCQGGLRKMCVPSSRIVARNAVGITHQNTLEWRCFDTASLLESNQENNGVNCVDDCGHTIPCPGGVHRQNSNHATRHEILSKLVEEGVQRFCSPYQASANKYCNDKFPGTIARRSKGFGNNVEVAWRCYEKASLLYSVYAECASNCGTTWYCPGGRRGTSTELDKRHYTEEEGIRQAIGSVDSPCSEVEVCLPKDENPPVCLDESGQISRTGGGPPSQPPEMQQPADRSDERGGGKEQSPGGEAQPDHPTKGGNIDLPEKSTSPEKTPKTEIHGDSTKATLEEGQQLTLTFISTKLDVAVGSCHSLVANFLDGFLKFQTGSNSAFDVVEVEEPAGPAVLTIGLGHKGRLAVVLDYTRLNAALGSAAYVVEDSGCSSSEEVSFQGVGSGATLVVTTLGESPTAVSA

Row | SMILES | microplate sugar-inhibition of binding to coated fetuin, antibody detection (rMIC1) | microplate sugar-inhibition of binding to coated asialofetuin, antibody detectio (rMIC4)
1 | CC(=O)N[C@H]1[C@H]([C@H](O)[C@H](O)CO)O[C@@](O[C@H]2[C@@H](O)[C@@H](CO)O[C@@H](O[C@H]3[C@H](O)[C@@H](O)C(O)O[C@@H]3CO)[C@@H]2O)(C(=O)O)C[C@@H]1O (stereo partly drawn) [α(2–3)-sialyllactose] | Sialyllactose inhibited the binding of rMIC1 to fetuin | 
2 | CC(=O)N[C@H]1C(O)O[C@H](CO)[C@@H](O)[C@@H]1O[C@@H]1O[C@H](CO)[C@H](O)[C@H](O)[C@H]1O (some centres unmarked) [lacto-N-biose] |  | lacto-N-biose inhibited the binding of rMIC4 to asialofetuin
